Reference: US5332754A, “Naphthyloxazolidone derivatives” (Tanabe Seiyaku Co., Ltd., priority 1989, dated 1994)

Legend:
[1] = test system: cerebral MAO-B; assay: Inhibitory effect against cerebral MAO-B activity in mouse (oral administration); assay type: in vivo; conditions: 30 mg/kg oral, brain excised 45 minutes after administration, benzylamine substrate
Experimental: (§1) Inhibitory effect against cerebral MAO-A and MAO-B activity in mouse.
(§2) A test compound (30 mg/kg) suspended in 0.5% aqueous sodium carboxymethylcellulose (CMC-Na) solution was administered orally to a group of 3 mice. The brain was excised 45 minutes after the administration. A control group was administered with the 0.5% aqueous CMC-Na solution alone.
(§3) The brain tissue was homogenized in 9 volumes of ice-cold distilled water and the homogenate was used as enzyme. MAO-A activity was estimated in the same manner as described in Experiment 1, whereas MAO-B activity was estimated in terms of the amount of benzaldehyde formed from benzylamine according to the method as described in "The Journal of Laboratory and Clinical Medicine, vol.
Inhibitory rate of the test compound against the MAO-B activity are calculated according to the following equation. [formula] BA(T): the amount of benzaldehyde in the medicated group BA(C): the amount of benzaldehyde in the non-medicated control group

[2] = target: T1, MAO-A (Rattus norvegicus, UniProt P21396); assay: Inhibitory effect against MAO-A activity of cerebral mitochondrial fraction from rat (in vitro); assay type: biochemical; conditions: 10^-7 M test compound, serotonin substrate, read-out: Inhibitory rate (%) against MAO-A activity
T1 construct: mitochondorial fraction obtained from cerebral tissue of rats; from tissue; host or cells: rat cerebral tissue, mitochondrial fraction
T1 sequence (P21396 1-526): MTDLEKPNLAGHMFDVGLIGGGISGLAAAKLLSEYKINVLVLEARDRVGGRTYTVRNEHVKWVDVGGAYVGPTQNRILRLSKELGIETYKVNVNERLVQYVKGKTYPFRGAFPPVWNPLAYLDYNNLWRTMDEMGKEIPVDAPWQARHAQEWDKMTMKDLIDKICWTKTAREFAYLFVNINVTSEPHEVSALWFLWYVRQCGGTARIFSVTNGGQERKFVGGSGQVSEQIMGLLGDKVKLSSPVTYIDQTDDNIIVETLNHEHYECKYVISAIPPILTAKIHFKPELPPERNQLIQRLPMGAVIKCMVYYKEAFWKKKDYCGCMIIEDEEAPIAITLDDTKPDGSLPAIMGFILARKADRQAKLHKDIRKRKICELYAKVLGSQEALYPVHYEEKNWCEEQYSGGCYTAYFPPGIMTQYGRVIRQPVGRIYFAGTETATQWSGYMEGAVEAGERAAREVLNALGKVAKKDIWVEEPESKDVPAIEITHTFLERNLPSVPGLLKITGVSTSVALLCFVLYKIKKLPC
Experimental: Inhibitory effect against MAO-A activity of cerebral mitochondorian fraction from rat (in vitro)
(§4) A suspension (7mg protein/ml) of mitochondorial fraction obtained from cerebral tissue of rats in a conventional manner was used as a sample of enzyme, and serotonin was used as the substrate. of MAO-A. The MAO-A activity was estimated in terms of the amount of ammonia produced from serotonin by the enzymatic reaction.
Inhibitory rate of the test compounds (10^-7 M) against the MAO-A activity was calculated according to the following equation. [formula] NH3 (T): the amount of NH3 in test tube (addtion of test compound) NH3 (C): the amount of NH3 in control tube (no addition of test compound)

[3] = test system: cerebral MAO-A; assay: Inhibitory effect against cerebral MAO-A activity in mouse (oral administration); assay type: in vivo; conditions: 30 mg/kg oral, brain excised 45 minutes after administration, serotonin substrate
Experimental: as §4, §1, §2, §3

[4] = test system: mice; assay: Acute oral toxicity in mice; assay type: in vivo, mouse; conditions: 2g/kg orally, 2 week-observation period
Text: The naphthyloxazolidone derivative (I)or a pharmaceutically acceptable salt thereof has excellent reversible and selective MAO-A inhibitory activity. Accordingly, the compound (I) or a pharmaceutically acceptable salt thereof is useful as a therapeutic or prophylactic agent for depressive conditions such as depression, senile depression, abulia, axiety, insomnia, anorexia and the like in warm-blood animals including human beings. […] Moreover, the compound (I) or a pharmaceutically acceptable salt thereof is low in toxicity and have high safety as a pharmaceuticals. For example, when 3-(6-cyanoethoxy-2-naphthyl)-5-methoxymethyl-2-oxazolidone was administered orally to mice at a dose of 2g/kg, no mice died during 2 week-observation period.

Row | SMILES | Inhibitory rate (%) MAO-B [1] [%] | inhibition at 0.1 µM [2] [%] | Inhibitory rate (%) MAO-A [3] [%] | mortality [4]
1 | COCC1CN(c2ccc3cc(OC(C)C)ccc3c2)C(=O)O1 (centres unmarked) [OCH(CH3)2] | 3.6 ± 5.3 | 98.8 | 86.8 ± 5.4 | –
2 | COCC1CN(c2ccc3cc(OC(C)=O)ccc3c2)C(=O)O1 (centres unmarked) [OCOCH3, 3-(6-acetyloxy-2-naphthyl)-5-methoxymethyl-2-oxazolidone] | -3.1 ± 1.8 | 76.6 | 56.4 ± 7.4 | –
3 | COCC1CN(c2ccc3cc(OCCCC#N)ccc3c2)C(=O)O1 (centres unmarked) [O(CH2)3 CN] | -1.9 ± 4.8 | 95.5 | 99.8 ± 16.1 | –
4 | COCC1CN(c2ccc3cc(OCCC#N)ccc3c2)C(=O)O1 (centres unmarked) [O(CH2)2 CN, 3-(6-cyanoethoxy-2-naphthyl)-5-methoxymethyl-2-oxazolidone] | -1.0 ± 2.3 | 98.1 | 109.2 ± 3.5 | no mice died
5 | COCC1CN(c2ccc3cc(OCC4CC4)ccc3c2)C(=O)O1 (centres unmarked) | -4.5 ± 5.9 | 93.5 | 71.4 ± 4.3 | –
6 | C#CCN(C)Cc1ccccc1 [pargyline, reference compound] | 98.3 ± 5.9 | – | 42.0 ± 2.4 | –
7 | C=CCOc1ccc2cc(N3CC(COC)OC3=O)ccc2c1 (centres unmarked) [OCH2 CHCH2] | – | 96.8 | – | –
8 | COCC1CN(c2ccc3cc(OCCCO)ccc3c2)C(=O)O1 (centres unmarked) [O(CH2)3 OH] | 1.0 ± 0.8 | 91.7 | 57.1 ± 4.3 | –
9 | COCC1CN(c2ccc3ccccc3c2)C(=O)O1 (centres unmarked) [H, 5-methoxymethyl-3-(2-naphthyl)-2-oxazolidone] | – | 78.4 | – | –
